Consider one molecule from patent US20150159169A1, “Plants Tolerant to HPPD Inhibitor Herbicides” (Bayer CropScience AG, priority 2009, published 2015).

One assay relates to wild-type soybean shoots. Put plainly: Soybean shoot greening on isoxaflutole selection. Format: cell-based. Conditions: same amount of isoxaflutole. The text has this: (§1) Soybean transformation was achieved using methods well known in the art, such as the one described using the Agrobacterium tumefaciens mediated transformation soybean half-seed explants described by Paz et al. (2006, Plant cell Rep. 25:206). Transformants were identified using Isoxaflutole as selection marker. The appearance of green shoots was observed, and documented as an indicator of tolerance to the herbicide isoxaflutole. […] Tolerant green shoots were transferred to rooting media or grafted. Rooted plantlets were transferred to the glasshouse after an acclimation period.

In assay [1] the test system is transgenic soybean shoots (FMP27 protein). Briefly: Soybean shoot greening on isoxaflutole selection. Conditions: isoxaflutole as selection marker. In kind it is cell-based.
Description: as §1

Assay [2] deals with T1 tobacco plants containing Arabidopsis HPPD. Put plainly: Glasshouse spray trial, % injury. In kind it is in vivo, Nicotiana tabacum. Conditions: 7DAT, 100 gAI/ha spray. The protocol:
(§2) T0 Tobacco plants containing either the gene from Arabidopsis coding for HPPD or the gene FMP27e from Kordia algicida coding for FMP27 HPPD, mentioned above (Example 3), were transferred to the glasshouse (28/20° C.), to develop further and produce seeds. Those seeds were harvested and put on soil (ED73 mixed with sand and osmocote Pro) to germinate in the glasshouse (28/20° C.). Three to four weeks later, plantlets were transferred to single pots containing the soil mentioned above. Two weeks later, plants of a size 4-6 cm diameter were sprayed with either • tembotrione at 100 gAI/ha prepared from a WP20 (wettable powder 20%) formulation supplemented with ammonium sulfate and methyl ester raps oil, or • isoxaflutole at 100 gAI/ha prepared from a WP20 formulation supplemented with ammonium sulfate and methyl ester raps oil, or • bicyclopyrone at 100 gAI/ha prepared from a WP20 formulation supplemented with ammonium sulfate and methyl ester raps oil, or • “blind formulation” made from a WP20 formulation without active ingredient (AI) supplemented with ammonium sulfate and methyl ester raps oil, and were then transferred to a growth chamber with adequate light conditions (20000 Lux).
(§3) Table 6: Wild type tobacco plants (A) and T1 populations of tobacco events containing alternatively, the expression cassettes described above having the promoter CaMV 35S, the sequence coding for OTP and the sequence coding for Arabidopsis HPPD (B) or the promoter CaMV35S, the sequence encoding OTP, and the sequence FMP27e coding for the HPPD FMP27 (C). Assessments of herbicidal damage at 7 days after application (DAT) per spray with 100 g AI/ha of tembotrione or isoxaflutole supplemented with ammonium sulfate and methyl ester raps oil. […] Plants belonging to categories (B) and (C) have not been selected for the presence of the respective transgene prior to the herbicide application.

Another assay concerns wild type tobacco plants. Put plainly: Glasshouse spray trial, % injury. In kind it is in vivo, Nicotiana tabacum. Conditions: 7DAT, 100 gAI/ha spray; individual WT plants; 100% = bleaching as wild type. The method, then: as §2, §3
The subject of assay [3] is T1 tobacco plants containing FMP27e (Kordia algicida HPPD FMP27). Briefly: Glasshouse spray trial, % injury. Conditions: 7DAT, 100 gAI/ha spray. In kind it is in vivo, Nicotiana tabacum. The method, then: as §2, §3

Values joined by “and” are separate entries in the source; they are usually repeats but may differ in a detail not shown here. Equal entries are not always repeated.

As for `CS(=O)(=O)c1cc(C(F)(F)F)ccc1C(=O)c1cnoc1C1CC1` [Isoxaflutole, (5-cyclopropyl-4-isoxazolyl)[2-(methylsulfonyl)-4-(trifluoromethyl)phenyl]methanone], in the assay with wild-type soybean shoots, the “appearance of shoots treated with isoxaflutole” value is on record as “entirely bleached”. Besides, the “transgenic tested shoots showing normal greening” value in assay [1] is listed as 1%. Besides, the “% injury” value in assay [2] (line 252, individual T1 plants) is 30% and 70% and 95% and 98% (2×) and 99% (4×) and 100% (4×); in assay [2] (line 258, individual T1 plants) it was 100%; in assay [2] (line 327, individual T1 plants), 10% and 20% and 60% (2×) and 70% and 80% and 95% and 98% and 99% and 100% (6×); with wild type tobacco plants it was 99% (2×) and 100% (4×) and 98%; in assay [3] (line 121, individual T1 plants) it was 0% (4×) and 1% and 2% and 20%; in assay [3] (line 129, individual T1 plants), 0% (4×) and 1% (3×) and 2% (3×) and 5% and 10% (2×). In addition, in assay [3] (line 218, individual T1 plants), the “% injury” value was 0% (9×) and 1% (3×) and 2% and 3% and 5%.
